Data on 21 compounds can be found in patent US20250197372A1 (priority 2020, published 2025).

The target of test [1] is T1, recombinant alpha-glucosidase I (human full-length glucosidase I, Glu 1) (Homo sapiens, UniProt Q13724).
T1 construct: 6-His (C); made in house; host or cells: HEK-293T cells transduced with BacMam virus (virus raised in Sf9)
T1 sequence (Q13724 1-837): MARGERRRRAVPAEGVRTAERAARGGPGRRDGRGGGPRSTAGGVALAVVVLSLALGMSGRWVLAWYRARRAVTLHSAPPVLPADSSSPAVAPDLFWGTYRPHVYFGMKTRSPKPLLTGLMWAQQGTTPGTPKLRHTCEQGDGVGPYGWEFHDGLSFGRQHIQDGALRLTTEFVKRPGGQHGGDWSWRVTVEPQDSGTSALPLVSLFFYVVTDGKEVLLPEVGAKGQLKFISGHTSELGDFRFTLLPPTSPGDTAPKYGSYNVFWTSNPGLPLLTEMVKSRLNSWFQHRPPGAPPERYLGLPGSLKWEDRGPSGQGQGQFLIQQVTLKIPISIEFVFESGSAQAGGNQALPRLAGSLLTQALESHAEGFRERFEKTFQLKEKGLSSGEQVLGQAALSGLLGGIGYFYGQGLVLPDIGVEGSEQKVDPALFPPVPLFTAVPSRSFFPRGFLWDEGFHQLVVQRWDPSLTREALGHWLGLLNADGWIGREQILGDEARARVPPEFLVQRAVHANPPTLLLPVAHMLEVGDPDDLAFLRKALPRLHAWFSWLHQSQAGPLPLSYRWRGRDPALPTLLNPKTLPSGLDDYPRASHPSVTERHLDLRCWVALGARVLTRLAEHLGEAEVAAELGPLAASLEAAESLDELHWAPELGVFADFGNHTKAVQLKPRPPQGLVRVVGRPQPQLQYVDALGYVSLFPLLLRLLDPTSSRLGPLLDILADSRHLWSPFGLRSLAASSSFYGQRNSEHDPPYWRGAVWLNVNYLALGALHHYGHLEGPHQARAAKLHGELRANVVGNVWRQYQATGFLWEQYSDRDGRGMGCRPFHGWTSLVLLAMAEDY
The test can be described thus: Alpha-glucosidase I assay (Amplex Red glucose detection, synthetic trisaccharide substrate). The settings on record: Glucosidase 1; read-out: Glu 1 IC50. The test is classed as biochemical. In short, it runs like this: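 Compound dilution series incubated 60 min at 37° C with recombinant His-tagged human glucosidase I ([…]), after which trisaccharide substrate analog was added for 90 min at 37° C. Reaction quenched with 1.5M Tris pH 8; D-glucose detected by Amplex Red fluorescence, 560/590 nm. 4-PL curve fit of percent inhibition gave IC50.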

The target of test [2] is T2, recombinant alpha-glucosidase II (murine full-length glucosidase II, alpha and beta subunits, Glu 2) (Mus musculus, UniProt Q8BHN3).
T2 construct: made in house; host or cells: HEK-293T cells transduced with BacMam viruses (75% alpha, 25% beta); protein harvested from culture supernatant
Description: Alpha-glucosidase II assay (4-methylumbelliferyl-alpha-D-pyranoside substrate, fluorescence). The settings on record: Glucosidase 2; read-out: Glu2 IC50. The test is classed as biochemical.

A value given as a limit tells only on which side of the number the result lay.

T2 sequence (O08795 15-521): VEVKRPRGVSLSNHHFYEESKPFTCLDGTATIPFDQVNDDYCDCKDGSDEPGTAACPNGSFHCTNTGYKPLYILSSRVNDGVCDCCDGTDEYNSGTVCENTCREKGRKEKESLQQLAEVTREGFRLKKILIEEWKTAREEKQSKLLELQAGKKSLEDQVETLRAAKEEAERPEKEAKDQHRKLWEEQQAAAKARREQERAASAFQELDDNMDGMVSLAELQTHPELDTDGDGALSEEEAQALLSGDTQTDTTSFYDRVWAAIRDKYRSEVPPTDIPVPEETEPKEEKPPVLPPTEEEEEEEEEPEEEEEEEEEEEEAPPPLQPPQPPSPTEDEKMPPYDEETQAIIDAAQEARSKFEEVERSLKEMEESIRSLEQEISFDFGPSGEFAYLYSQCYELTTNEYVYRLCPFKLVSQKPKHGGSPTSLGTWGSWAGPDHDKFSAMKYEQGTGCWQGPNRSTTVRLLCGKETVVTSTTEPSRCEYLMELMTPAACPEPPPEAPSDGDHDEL
T2 sequence (Q8BHN3 33-944): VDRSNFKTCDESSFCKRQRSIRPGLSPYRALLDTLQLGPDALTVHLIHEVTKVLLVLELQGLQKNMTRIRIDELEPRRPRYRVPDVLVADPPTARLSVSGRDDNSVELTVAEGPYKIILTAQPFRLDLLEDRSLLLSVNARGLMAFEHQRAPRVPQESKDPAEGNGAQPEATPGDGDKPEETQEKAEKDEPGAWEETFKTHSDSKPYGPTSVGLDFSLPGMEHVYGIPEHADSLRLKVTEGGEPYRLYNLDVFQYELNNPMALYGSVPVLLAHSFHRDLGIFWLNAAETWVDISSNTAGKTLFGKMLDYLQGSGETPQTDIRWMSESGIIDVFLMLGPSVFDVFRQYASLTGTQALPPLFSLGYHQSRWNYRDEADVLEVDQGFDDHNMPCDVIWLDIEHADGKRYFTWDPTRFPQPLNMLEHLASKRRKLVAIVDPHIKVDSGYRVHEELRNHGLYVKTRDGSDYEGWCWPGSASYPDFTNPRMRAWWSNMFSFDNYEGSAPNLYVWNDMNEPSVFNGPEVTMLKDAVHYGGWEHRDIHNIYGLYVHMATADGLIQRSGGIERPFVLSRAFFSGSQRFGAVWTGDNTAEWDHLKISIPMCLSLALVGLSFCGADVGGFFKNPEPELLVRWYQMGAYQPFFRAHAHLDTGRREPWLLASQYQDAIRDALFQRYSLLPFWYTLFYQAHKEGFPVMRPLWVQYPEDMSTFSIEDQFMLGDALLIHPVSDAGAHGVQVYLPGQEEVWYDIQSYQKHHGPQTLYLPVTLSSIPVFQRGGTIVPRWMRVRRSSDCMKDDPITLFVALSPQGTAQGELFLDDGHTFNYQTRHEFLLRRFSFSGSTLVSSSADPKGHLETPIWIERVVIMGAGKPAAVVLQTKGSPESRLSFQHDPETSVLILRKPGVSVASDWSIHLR

As for `COc1cc(Br)cc(NCCn2cc(CCN3C[C@H](O)[C@@H](O)[C@H](O)[C@H]3CO)c3ccccc32)c1` [Compound 1075, (2R,3R,4R,5S)-1-[2-(1-{2-[(3-bromo-5-methoxyphenyl)amino]ethyl}-1H-indol-3-yl)ethyl]-2-(hydroxymethyl)piperidine-3,4,5-triol], the IC50 in test [1] worked out at 1920 nM; in test [2], 150 nM.
In the case of `OC[C@@H]1[C@@H](O)[C@H](O)[C@@H](O)CN1CCc1cn(CCNc2ccccc2)c2ccccc12` [Compound 1076, (2R,3R,4R,5S)-2-(hydroxymethyl)-1-(2-{1-[2-(phenylamino)ethyl]-1H-indol-3-yl}ethyl)piperidine-3,4,5-triol], the figures for the IC50 in test [1] and in test [2] were 1310 nM and 66 nM, respectively.
The corresponding values for `CC(C)c1cc(CCNc2ccc(N=[N+]=[N-])cc2[N+](=O)[O-])cc(CCN2C[C@H](O)[C@@H](O)[C@H](O)[C@H]2CO)c1` [Compound 1077, (2R,3R,4R,5S)-1-[2-(3-{2-[(4-azido-2-nitrophenyl)amino]ethyl}-5-(propan-2-yl)phenyl)ethyl]-2-(hydroxymethyl)piperidine-3,4,5-triol] are 697 nM and 203 nM.
Taken in the same sequence, the figures for `O=[N+]([O-])c1cc(-c2ncc[nH]2)ccc1NCCc1ccc(CCN2C[C@H](O)[C@@H](O)[C@H](O)[C@H]2CO)cc1` [Compound 1078, (2R,3R,4R,5S)-2-(hydroxymethyl)-1-{2-[4-(2-{[4-(1H-imidazol-2-yl)-2-nitrophenyl]amino}ethyl)phenyl]ethyl}piperidine-3,4,5-triol] were 200 nM and 95 nM.
With `OC[C@@H]1[C@@H](O)[C@H](O)[C@@H](O)CN1Cc1cccc(CNc2ccc(N3CCOCC3)cc2)c1` [Compound 1081, (2R,3R,4R,5S)-2-(hydroxymethyl)-1-{[3-({[4-(morpholin-4-yl)phenyl]amino}methyl)phenyl]methyl}piperidine-3,4,5-triol], the IC50 came to 169 nM in test [1] and 70400 nM in test [2].
On to `OC[C@@H]1[C@@H](O)[C@H](O)[C@@H](O)CN1Cc1cccc(CNc2ccc(-c3ccc[nH]3)cc2)c1` [Compound 1082, (2R,3R,4R,5S)-2-(hydroxymethyl)-1-{[3-({[4-(1H-pyrrol-2-yl)phenyl]amino}methyl)phenyl]methyl}piperidine-3,4,5-triol], for which the IC50 in test [1] was determined as 69 nM; in test [2] it was 5630 nM.
Regarding `OC[C@@H]1[C@@H](O)[C@H](O)[C@@H](O)CN1Cc1cccc(CNc2ccc(-c3cccnn3)cc2)c1` [Compound 1083, (2R,3R,4R,5S)-2-(hydroxymethyl)-1-{[3-({[4-(pyridazin-3-yl)phenyl]amino}methyl)phenyl]methyl}piperidine-3,4,5-triol], the concentration for half-maximal inhibition (IC50) was determined as 72 nM in test [1] and 9990 nM in test [2].
In the case of `OC[C@@H]1[C@@H](O)[C@H](O)[C@@H](O)CN1Cc1cccc(CNc2ccc(-c3ncccn3)cc2)c1` [Compound 1084, (2R,3R,4R,5S)-2-(hydroxymethyl)-1-{[3-({[4-(pyrimidin-2-yl)phenyl]amino}methyl)phenyl]methyl}piperidine-3,4,5-triol], the figures for the IC50 in test [1] and in test [2] were 79 nM and 26600 nM, respectively.
The corresponding values for `O=[N+]([O-])c1cc(CN2CCCO2)ccc1NCc1cccc(CN2C[C@H](O)[C@@H](O)[C@H](O)[C@H]2CO)c1` [Compound 1086] are 132 nM and 44200 nM.
With `O=[N+]([O-])c1cc(C2=COCCO2)ccc1NCc1cccc(CN2C[C@H](O)[C@@H](O)[C@H](O)[C@H]2CO)c1` [Compound 1087, (2R,3R,4R,5S)-1-{[3-({[4-(5,6-dihydro-1,4-dioxin-2-yl)-2-nitro-phenyl]amino}methyl)phenyl]methyl}-2-(hydroxymethyl)piperidine-3,4,5-triol], the 50% inhibitory concentration (IC50) in test [1] was below 1 nM; in test [2], 8110 nM.
The corresponding values for `O=[N+]([O-])c1cc(-c2ccc[nH]2)ccc1NCc1cccc(CN2C[C@H](O)[C@@H](O)[C@H](O)[C@H]2CO)c1` [Compound 1088, (2R,3R,4R,5S)-2-(hydroxymethyl)-1-{[3-({[2-nitro-4-(1H-pyrrol-2-yl)phenyl]amino}methyl)phenyl]methyl}piperidine-3,4,5-triol] are below 1 nM and 6360 nM.
Taken in the same sequence, the figures for `O=[N+]([O-])c1cc(-c2cccnn2)ccc1NCc1cccc(CN2C[C@H](O)[C@@H](O)[C@H](O)[C@H]2CO)c1` [Compound 1089, (2R,3R,4R,5S)-2-(hydroxymethyl)-1-{[3-({[2-nitro-4-(pyridazin-3-yl)phenyl]amino}methyl)phenyl]methyl}piperidine-3,4,5-triol] were 26 nM and 20700 nM.
The corresponding values for `O=[N+]([O-])c1cc(-c2ncccn2)ccc1NCc1cccc(CN2C[C@H](O)[C@@H](O)[C@H](O)[C@H]2CO)c1` [Compound 1090, (2R,3R,4R,5S)-2-(hydroxymethyl)-1-{[3-({[2-nitro-4-(pyrimidin-2-yl)phenyl]amino}methyl)phenyl]methyl}piperidine-3,4,5-triol] are 7 nM and 13800 nM.
As to `OC[C@@H]1[C@@H](O)[C@H](O)[C@@H](O)CN1Cc1ccc(CNc2ccc(CN3CCCO3)cc2)cc1` [Compound 1092, (2R,3R,4R,5S)-2-(hydroxymethyl)-1-({4-[({4-[(1,2-oxazolidin-2-yl)methyl]phenyl}amino)methyl]phenyl}methyl)piperidine-3,4,5-triol], the IC50 in test [1] amounted to 59 nM; in test [2], 1780 nM.
For `OC[C@@H]1[C@@H](O)[C@H](O)[C@@H](O)CN1Cc1ccc(CNc2ccc(C3=COCCO3)cc2)cc1` [Compound 1093, (2R,3R,4R,5S)-1-{[4-({[4-(5,6-dihydro-1,4-dioxin-2-yl)phenyl]amino}methyl)phenyl]methyl}-2-(hydroxymethyl)piperidine-3,4,5-triol], the IC50 in test [1] was 12 nM; in test [2] it was 1040 nM.
The corresponding values for `OC[C@@H]1[C@@H](O)[C@H](O)[C@@H](O)CN1Cc1ccc(CNc2ccc(-c3ccc[nH]3)cc2)cc1` [Compound 1094, (2R,3R,4R,5S)-2-(hydroxymethyl)-1-{[4-({[4-(1H-pyrrol-2-yl)phenyl]amino}methyl)phenyl]methyl}piperidine-3,4,5-triol] are 28 nM and 177 nM.
For `OC[C@@H]1[C@@H](O)[C@H](O)[C@@H](O)CN1Cc1ccc(CNc2ccc(-c3ncccn3)cc2)cc1` [Compound 1096, (2R,3R,4R,5S)-2-(hydroxymethyl)-1-{[4-({[4-(pyrimidin-2-yl)phenyl]amino}methyl)phenyl]methyl}piperidine-3,4,5-triol], the IC50 was found to be 15 nM in test [1] and 1430 nM in test [2].
Taken in the same sequence, the figures for `O=[N+]([O-])c1cc(C2=COCCO2)ccc1NCc1ccc(CN2C[C@H](O)[C@@H](O)[C@H](O)[C@H]2CO)cc1` [Compound 1099, (2R,3R,4R,5S)-1-{[4-({[4-(5,6-dihydro-1,4-dioxin-2-yl)-2-nitrophenyl]amino}methyl)phenyl]methyl}-2-(hydroxymethyl)piperidine-3,4,5-triol] were below 1 nM and below 1 nM.
The corresponding values for `O=[N+]([O-])c1cc(-c2ccc[nH]2)ccc1NCc1ccc(CN2C[C@H](O)[C@@H](O)[C@H](O)[C@H]2CO)cc1` [Compound 1100, (2R,3R,4R,5S)-2-(hydroxymethyl)-1-{[4-({[2-nitro-4-(1H-pyrrol-2-yl)phenyl]amino}methyl)phenyl]methyl}piperidine-3,4,5-triol] are below 1 nM and below 1 nM.
Taken in the same sequence, the figures for `O=[N+]([O-])c1cc(-c2cccnn2)ccc1NCc1ccc(CN2C[C@H](O)[C@@H](O)[C@H](O)[C@H]2CO)cc1` [Compound 1101, (2R,3R,4R,5S)-2-(hydroxymethyl)-1-{[4-({[2-nitro-4-(pyridazin-3-yl)phenyl]amino}methyl)phenyl]methyl}piperidine-3,4,5-triol] were below 1 nM and 43 nM.
Turning to `O=[N+]([O-])c1cc(-c2ncccn2)ccc1NCc1ccc(CN2C[C@H](O)[C@@H](O)[C@H](O)[C@H]2CO)cc1` [Compound 1102, (2R,3R,4R,5S)-2-(hydroxymethyl)-1-{[4-({[2-nitro-4-(pyrimidin-2-yl)phenyl]amino}methyl)phenyl]methyl}piperidine-3,4,5-triol], the IC50 in test [1] was below 1 nM; in test [2], 64 nM.
